The values that follow come from patent publication US11931485B2, “Implantable sustained release device and a method of use therefor in the treatment of brain disorders” (priority 2021, dated 2024).

Like-named read-outs stand apart in the source and are kept apart here.

Assay [1] deals with patients suffering from severe headaches.
In assay [2] the test system is trigeminal nerve ganglion function. The assay can be described thus: Intra-arterial lidocaine in the middle meningeal artery territory in patients with refractory trigeminal neuralgia (blink reflex monitoring, clinical outcome). It counts as in vivo. The source says:
Trigeminal neuralgia consists of unilateral, brief/paroxysmal, or continuous pain in one or more divisions of the trigeminal nerve. The pain is secondary to hyperactivity or spontaneous impulse generation within the nerves due to extrinsic compression or intrinsic neural dysfunction. In the experiment, the intra-arterial delivery of medication for modulating trigeminal nerve ganglion function in patients with refractory trigeminal neuralgia was examined. […] Clinical outcome assessment included a 10-point numeric rating, 4-point severity grading, and the pain-free time interval pre- and post-treatment.

Turning to `CCN(CC)CC(=O)Nc1c(C)cccc1C` [lidocaine], the “self-reported headache intensity (Visual Analog scale)” value in assay [1] (first patient, after 5 min of lidocaine injection (40 mg), pre-procedure intensity 10) turned out to be 5; in assay [1] (second patient, after 5 min of lidocaine injection, pre-procedure intensity 7), 4. Also, the symptoms at follow-up result in assay [2] (all three patients, 1 month later) is on record as “returned to baseline severity”. The facial hyperalgesia entry in assay [2] (all three patients, all dermatomes) is “improvement in facial hyperalgesia”. Also, the “pain severity (10-point numeric rating, 4-point severity grading)” value in assay [2] (second and third patients) was “improvement in pain severity on all scales”. In addition, the pain-free interval in assay [2] (second patient) was 5 days; in assay [2] (third patient), 3 days.
